Measured values: publication PMC12041881, “Tailored phenyl ureas eradicate drug-resistant Mycobacterium tuberculosis by targeting mycolic acid cell wall assembly” (Chemical Science, 2025)

Tests used:
[1] = tested on: MmpL3 over- (+ATc) expressing Mtb H37Rv; assay type: cell-based, M. tuberculosis
[2] = tested on: 227-resistant mutants of M. tuberculosis H37rv; assay type: cell-based
M. tuberculosis H37Rv = assay type: cell-based

SMILES	susceptibility shift in MmpL3 over-expressing strain [1]	IC50 [2]	estimated frequency of resistance (M. tuberculosis H37Rv)
CC[C@@H](CO)NCCN[C@@H](CC)CO [Ethambutol]	no significant shifts	–	–
O=C(Nc1ccc(Cl)c(C(F)(F)F)c1)NC1CCCCC1 [Compound 227]	–	3.3 µM	1.5 × 10^−7
